A word on the Ki: it is the equilibrium dissociation constant of an inhibitor or competing ligand from its target. Usually Kd stands for the constant that tells how readily two partners part at equilibrium. A higher Kd goes with weaker binding. As usually defined, the IC50 is the concentration that gives 50% inhibition.

The text below walks through data of PMC6149722, “Comparison of the Binding of Reversible Inhibitors to Human Butyrylcholinesterase and Acetylcholinesterase: A Crystallographic, Kinetic and Calorimetric Study” (Molecules : A Journal of Synthetic Chemistry and Natural …, 2017).

Assay [1] concerns the target T1, BChE (Homo sapiens, UniProt P06276).
T1 construct: Purified human plasma wild-type BChE was a gift from Dr. Oksana Lockridge; tissue gift from Dr. Oksana Lockridge (University of Nebraska Medical Center); host or cells: human plasma
Kind of assay: Inhibition of second-order substrate hydrolysis by BChE (inhibition constants KI). The class given is biochemical. As for the experimental part: To further compare the binding sites of inhibitors with AChE and BChE, we employed an inhibitor competition assay. This assay is designed to detect any ternary complex formed when two inhibitors are added to AChE or BChE simultaneously. The assay is conducted with a substrate like acetylthiocholine whose second-order hydrolysis at low substrate concentrations is diffusion controlled and thus is inhibited by ligands that bind to either the A-site or the P-site (see Figure 7A below). Individual inhibition constants KI were obtained by plotting the ratios of the hydrolysis rate constant kE at various concentrations of one inhibitor (kE + I) to kE in the absence of inhibitor (kE [I] = 0) against inhibitor concentration. Inhibitor competition was then assessed by determining ratios of kE at a fixed concentration ([I1]) of inhibitor 1 and various concentrations ([I2]) of inhibitor 2 (kE + I2) to kE at the same [I1] in the absence of [I2] (kE [I2] = 0) and plotting these ratios against [I2]. These plots were analyzed with Equation (5) (described in the Materials and Methods Section 4.4) to obtain the relative affinity of I1 in its binary complex with enzyme E to I1 in a ternary complex with I2 and E (K12/K1). […].
For enzyme kinetics experiments, purified recombinant hAChE (~1500 units as determined by the supplier) was purchased from Sigma Aldrich (St. Louis, MO, USA). The AChE concentration was calculated using the assumption of 450 units/nmol (4.8 ∆A412/(min × nM)). Purified human plasma wild-type BChE was a gift from Dr. Oksana Lockridge (University of Nebraska Medical Center, Omaha, NE, USA). BChE concentration was calculated assuming 62.5 unit/nmol (0.94 ∆A412/(min × nM)). As defined previously, […] is the amount of BChE that gives 1.0 ∆A/min in the presence of 1.6 × 10^−4 M butyrylthiocholine in a 1.5 mL assay.
Inhibition constants for inhibitors of BChE were determined using a modification of a previously described method. Briefly, varying amounts of inhibitor (in 50 μL of 50% CH3CN(aq)) were added to 1.60 mL of buffer (0.09 M phosphate buffer, pH 8.0), 5,5′-dithio-bis (2-nitrobenzoic acid) (0.32 mM), and butyrylthiocholine substrate (5 μM) in a quartz cuvette of 1 cm path length, and the mixture was zeroed at 412 nm. The reaction was initiated by the addition of 50 μL of BChE (to 0.68 nM) in 0.1% aqueous gelatin. Assays were conducted at 23 °C. The absorbance (A), reflecting the cumulative hydrolysis of the substrate, was recorded every 5–20 s using an Ultraspec 2100 pro ultra violet (UV)-visible spectrophotometer (Fisher Scientific, Toronto, ON, Canada) equipped with Swift II application software. […]
In Equation (1), A412 is absorbance, [E]tot is the total enzyme concentration, kobs = kE[E]tot, and ΔA412 = A412(final) − A412(t = 0). […]

In assay [2] the target is T2, hAChE (Homo sapiens, UniProt P22303). Briefly: biochemical. The settings on record: for n (±SD), binding stoichiometry / ΔG (±SD), Gibbs free energy of binding / ΔH (±SD), binding heat: hAChE, ITC, 25 °C, pH 8.0. The assay is classed as binding.
T2 sequence (P22303 32-574): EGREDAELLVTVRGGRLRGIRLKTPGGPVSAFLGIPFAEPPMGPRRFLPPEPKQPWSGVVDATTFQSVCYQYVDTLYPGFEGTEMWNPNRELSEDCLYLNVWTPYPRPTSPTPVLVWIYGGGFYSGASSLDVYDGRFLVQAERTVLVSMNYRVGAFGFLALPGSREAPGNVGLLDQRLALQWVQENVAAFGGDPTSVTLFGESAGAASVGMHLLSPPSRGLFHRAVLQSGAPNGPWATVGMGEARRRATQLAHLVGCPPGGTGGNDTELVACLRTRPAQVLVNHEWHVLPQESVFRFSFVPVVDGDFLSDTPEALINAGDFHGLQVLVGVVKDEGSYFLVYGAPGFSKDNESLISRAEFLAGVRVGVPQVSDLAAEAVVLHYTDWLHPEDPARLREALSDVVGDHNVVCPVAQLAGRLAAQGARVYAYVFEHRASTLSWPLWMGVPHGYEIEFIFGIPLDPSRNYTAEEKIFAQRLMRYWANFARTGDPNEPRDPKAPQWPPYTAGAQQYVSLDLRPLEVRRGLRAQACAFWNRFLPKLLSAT
Assay [3] has as its target hBChE (Homo sapiens, UniProt P06276, N45Q/N483Q/N509Q/N514Q). Briefly: biochemical. The class given is binding. Conditions: for n (±SD), binding stoichiometry / ΔG (±SD), Gibbs free energy of binding / ΔH (±SD), binding heat: hBChE, ITC, 25 °C, pH 7.4.
Assay [4] concerns hBChE. Briefly: biochemical. Conditions: ITC KD, hAChE vs hBChE. The class given is binding.
Assay [5] deals with T1, BChE. Also noted: method as in PMID 22901043. The settings on record: cited from earlier work.
In assay [6] the test system is AChE. Conditions: cited from earlier work.
Assay [7] has as its target T1, BChE. The settings on record: in the presence of thioflavin T; cited from earlier work.
The subject of assay [8] is hBChE. The settings on record: specificity for BChE; cited from earlier work.
Assay [9] addresses T1, BChE. The assay is classed as biochemical. Conditions: binding site competition ratio of each inhibitor (I1) in the presence of decamethonium (I2), >> 1 denotes competition at the same site.
Procedure: This assay is designed to detect any ternary complex formed when two inhibitors are added to AChE or BChE simultaneously [15, 23, 34, 41, 42, 43]. The assay is conducted with a substrate like acetylthiocholine whose second-order hydrolysis at low substrate concentrations is diffusion controlled and thus is inhibited by ligands that bind to either the A-site or the P-site [15] […] Inhibitor competition was then assessed by determining ratios of kE at a fixed concentration ([I1]) of inhibitor 1 and various concentrations ([I2]) of inhibitor 2 (kE + I2) to kE at the same [I1] in the absence of [I2] (kE [I2] = 0) and plotting these ratios against [I2]. These plots were analyzed with Equation (5) (described in the Materials and Methods Section 4.4) to obtain the relative affinity of I1 in its binary complex with enzyme E to I1 in a ternary complex with I2 and E (K12/K1).
Determining rates of substrate hydrolysis in the presence of two inhibitors provides information that indicates whether these inhibitors are interacting with the same or different enzyme binding sites [15]. […]
In this equation, K1, K2, and K12 are the equilibrium dissociation constants for I1 with E, I2 with E, and I1 with the E I2 complex, respectively. Individual inhibition constants (e.g., K2) could be determined from Equation (5) with [I1] fixed at 0. […]
In assay [10] the target is T2, hAChE. Conditions: read-out: AChE KI, recalculated from data obtained in ref 23; cited from earlier work.
Assay [11] deals with BChE. The settings on record: cited from earlier work.
Assay [12] relates to AChE. Conditions: cited from earlier work. This is another data set of the same source.

Structures can show the parent of a compound that is named as a salt. Where two headings read alike, the source gives them in different places.

T1 sequence (P06276 29-602): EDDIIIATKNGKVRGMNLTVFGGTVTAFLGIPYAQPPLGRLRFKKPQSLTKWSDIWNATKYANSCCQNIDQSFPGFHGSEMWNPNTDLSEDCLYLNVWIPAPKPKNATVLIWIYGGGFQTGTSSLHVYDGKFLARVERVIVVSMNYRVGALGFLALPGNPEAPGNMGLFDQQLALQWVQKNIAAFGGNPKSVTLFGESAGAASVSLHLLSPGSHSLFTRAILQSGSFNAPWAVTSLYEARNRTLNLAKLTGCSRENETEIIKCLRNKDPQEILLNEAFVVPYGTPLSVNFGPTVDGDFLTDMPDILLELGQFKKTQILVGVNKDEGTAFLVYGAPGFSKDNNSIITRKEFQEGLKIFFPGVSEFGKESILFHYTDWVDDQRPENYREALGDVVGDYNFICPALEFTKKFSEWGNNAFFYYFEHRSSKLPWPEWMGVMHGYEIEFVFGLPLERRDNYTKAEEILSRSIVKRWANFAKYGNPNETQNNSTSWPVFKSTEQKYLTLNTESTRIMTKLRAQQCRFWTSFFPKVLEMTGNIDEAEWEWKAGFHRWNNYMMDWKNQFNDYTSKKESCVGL
Chain of hBChE (Homo sapiens, UniProt P06276, N45Q/N483Q/N509Q/N514Q) (P06276 29-557 N45Q/N483Q/N509Q/N514Q): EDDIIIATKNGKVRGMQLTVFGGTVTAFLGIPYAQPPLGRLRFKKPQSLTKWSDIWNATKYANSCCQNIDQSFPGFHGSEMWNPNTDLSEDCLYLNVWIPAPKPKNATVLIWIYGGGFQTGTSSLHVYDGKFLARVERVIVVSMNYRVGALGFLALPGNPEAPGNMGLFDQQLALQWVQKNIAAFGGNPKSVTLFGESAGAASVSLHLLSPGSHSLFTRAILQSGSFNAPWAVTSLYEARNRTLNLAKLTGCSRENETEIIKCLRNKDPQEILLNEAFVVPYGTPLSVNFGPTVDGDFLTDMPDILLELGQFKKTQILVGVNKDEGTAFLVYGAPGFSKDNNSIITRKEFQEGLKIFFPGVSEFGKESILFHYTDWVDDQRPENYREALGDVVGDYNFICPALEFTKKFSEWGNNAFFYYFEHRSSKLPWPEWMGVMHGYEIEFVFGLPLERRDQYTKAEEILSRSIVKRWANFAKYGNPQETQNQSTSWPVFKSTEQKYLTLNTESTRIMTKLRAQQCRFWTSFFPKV

Consider `C[N+](C)(C)CCCCCCCCCC[N+](C)(C)C` [Decamethonium, decamethonium bromide], for which the Ki at BChE [1] turned out to be 4.5 ± 0.2 µM.
Consider `CC[N+](C)(C)c1cccc(O)c1` [Edrophonium, edrophonium chloride], for which the “n (±SD), binding stoichiometry” value at hAChE [2] is 0.8 ± 0.3; at hAChE [2] (listed as edrophonium), ~ 1; at hBChE [3] it was 0.9 ± 0.1; at hBChE [3] (listed as edrophonium), ~ 1. For the same molecule, the “ΔG (±SD), Gibbs free energy of binding” value was -8.03 ± 0.19 kcal/mol on hAChE [2] and -6.24 ± 0.072 kcal/mol on hBChE [3]. Besides, the “ΔH (±SD), binding heat” value is -6.31 ± 1.89 kcal/mol at hAChE [2] and -3.01 ± 0.406 kcal/mol at hBChE [3]. The Kd on hBChE [3] is 27.2 ± 2.4 µM. Further, the “difference in KD values between AChE and BChE” value in the assay on hBChE [4] was around 20 fold. Further, the inhibitory constant (Ki) at BChE [5] (BChE, updated from data in ref 23) was 49 ± 3 µM; at BChE [5] (read-out: BChE KI, hBChE, recalculated from data obtained in ref 23), 49 ± 3 µM. Also, in the assay on AChE [6] (binding site competition ratio in the presence of thioflavin T, recalculated from data obtained in ref 23), the “AChE K12/K1” value is reported as 2.9 ± 0.2. Besides, the “AChE K12/K1 competition class” value with AChE [6] (in the presence of thioflavin T) is “NC (A K12/K1 ratio of ~1 indicates no competition at binding sites (NC))”. In addition, on BChE [7], the “BChE K12/K1 competition class” value was “PC (intermediate ratios indicate partial competition (PC))”.
Regarding `CCN(CC)C(C)CN1c2ccccc2Sc2ccccc21` (centres unmarked) [Ethopropazine, ethopropazine hydrochloride], on hBChE [3], binding was put at a Kd of 1.1 ± 0.1 µM; the “n (±SD), binding stoichiometry” value was 1.0 ± 0.1; the “ΔG (±SD), Gibbs free energy of binding” value is -8.15 ± 0.048 kcal/mol; the “ΔH (±SD), binding heat” value was -10.4 ± 1.53 kcal/mol. The “n (±SD), binding stoichiometry” value on hBChE [3] (listed as ethopropazine) is listed as ~ 1. Moreover, the “difference in KD values between AChE and BChE” value in the assay with hBChE [4] is around 20 fold. In addition, the “difference in Ki between hAChE and hBChE” value with hBChE [8] is listed as 9000 fold.
On to `Cc1ccc2c(c1)sc(-c1ccc(N(C)C)cc1)[n+]2C` [Thioflavin-T, ThT chloride], for which the Ki on BChE [1] (BChE 0.68 nM, butyrylthiocholine 5 µM, second-order dependence on inhibitor concentration, read-out: KI (fitted with Equation (4))) came to 1.61 ± 0.11 µM. At BChE [1] (BChE 0.68 nM, butyrylthiocholine 5 µM, second-order term), the “KII (fitted with Equation (4))” value is listed as 5.84 ± 0.16 µM^2. Further, at BChE [1] (BChE, two molecules of inhibitor, maximum reached when KI1 = KI2), the “KI12/KI1 (maximum for the affinity in the binary complex relative to that in the ternary complex)” value is 0.56 ± 0.04. Also, on BChE [9], the K12/K1 is listed as above 200. At hAChE [2], the equilibrium dissociation constant (Kd) came out at 17.7 µM; the “n (±SD), binding stoichiometry” value is 1; the “ΔG (±SD), Gibbs free energy of binding” value is -6.5 kcal/mol; the “ΔH (±SD), binding heat” value is -5.66 kcal/mol. The “n (±SD), binding stoichiometry” value on hAChE [2] (listed as ThT) is reported as ~ 1. Besides, at hBChE [3], binding was characterised by a dissociation constant (Kd) of 2.6 ± 0.5 µM; the “n (±SD), binding stoichiometry” value is listed as 2.2 ± 0.1; the “ΔG (±SD), Gibbs free energy of binding” value is -7.65 ± 0.14 kcal/mol; the “ΔH (±SD), binding heat” value is -2.72 ± 0.14 kcal/mol. In the assay on hBChE [4], the “difference in KD values between AChE and BChE” value was “about 7 fold”. Also, the Ki on hAChE [10] is 3.9 ± 0.4 µM.
Regarding `NCCC1=CC2Cc3nc4cc(Cl)ccc4c(N)c3C(C1)C2` (centres unmarked) [huprine 19], the IC50 with BChE [11] was 0.9 µM.
As for `Nc1c2c(nc3cc(Cl)ccc13)C[C@H]1C=C(CCO)C[C@@H]2C1` [huprine W], the IC50 is 1.2 µM in the assay on BChE [11] and 0.0011 µM in the assay on AChE [12].
